# Residues, ends and D or L forms follow the SMILES beside them.
# Key:
# Type in all cases: biochemical, E. coli
# [1] = target: T1, wild-type DegS (Escherichia coli, UniProt P0AEE3); experiment: OMP-peptide activation of RseA cleavage by wild-type DegS
# [2] = target: T2, K243D mutant of DegS (Escherichia coli, UniProt P0AEE3, K243D); experiment: OMP-peptide activation of RseA cleavage by K243D DegS
# [3] = target: T3, D320A DegS (Escherichia coli, UniProt P0AEE3, D320A); experiment: OMP-peptide activation of RseA cleavage by D320A DegS
# T3 sequence (P0AEE3 27-355 D320A): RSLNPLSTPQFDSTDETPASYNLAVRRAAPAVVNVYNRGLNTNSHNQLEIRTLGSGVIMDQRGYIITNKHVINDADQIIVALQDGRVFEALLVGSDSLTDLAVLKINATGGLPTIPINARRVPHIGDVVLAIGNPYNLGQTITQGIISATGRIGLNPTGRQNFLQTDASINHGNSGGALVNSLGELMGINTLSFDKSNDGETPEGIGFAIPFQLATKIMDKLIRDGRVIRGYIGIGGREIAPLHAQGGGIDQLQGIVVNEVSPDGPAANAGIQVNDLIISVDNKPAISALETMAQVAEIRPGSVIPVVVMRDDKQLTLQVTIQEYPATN
# [4] = target: T4, M319A DegS (Escherichia coli, UniProt P0AEE3, M319A); experiment: OMP-peptide activation of RseA cleavage by M319A DegS
# T4 sequence (P0AEE3 27-355 M319A): as the sequence (P0AEE3 27-355 D320A) above, with M293A, A294D counted along it
# [5] = target: T5, K243D/M319A double mutant of DegS (Escherichia coli, UniProt P0AEE3, K243D/M319A); experiment: OMP-peptide activation of RseA cleavage by K243D/M319A DegS
# T5 sequence (P0AEE3 27-355 K243D/M319A): as the sequence (P0AEE3 27-355 D320A) above, with K217D, M293A, A294D counted along it
# [6] = target: T1, wild-type DegS; conditions: wild-type DegS 0.5 μM trimer, YYF 300 μM
# [7] = target: T2, K243D mutant of DegS
# [8] = target: T3, D320A DegS
# [9] = target: T5, K243D/M319A double mutant of DegS; conditions: saturating peptide
# [10] = target: T1, wild-type DegS; conditions: wild-type DegS 0.9 μM trimer; 20 μM rhodamine-FP; saturating peptide
# [11] = target: T1, wild-type DegS
# [12] = target: T2, K243D mutant of DegS; experiment: Global fit to MWC allosteric model, K243D DegS
# [13] = target: T3, D320A DegS; experiment: Global fit to MWC allosteric model, D320A DegS
# [14] = target: T4, M319A DegS; experiment: Global fit to MWC allosteric model, M319A DegS
# [15] = target: T5, K243D/M319A double mutant of DegS; experiment: Global fit to MWC allosteric model, K243D/M319A DegS
# [16] = K243D, MWC global fit, RseA, not peptide, binding
# [17] = D320A, MWC global fit, RseA, not peptide, binding
# [18] = M319A, MWC global fit, RseA, not peptide, binding
# T2 sequence (P0AEE3 27-355 K243D): as the sequence (P0AEE3 27-355 D320A) above, with K217D, A294D counted along it
# T1 sequence (P0AEE3 27-355): as the sequence (P0AEE3 27-355 D320A) above, with A294D counted along it
compound,measurement,setting,value
N[C@@H](Cc1ccc(O)cc1)C(=O)N[C@@H](Cc1ccc(O)cc1)C(=O)N[C@@H](Cc1ccccc1)C(=O)O [YYF] (H-Tyr-Tyr-Phe-OH),EC50,[1],29 ± 3 µM
same,displacement in concentration between YYF and YQF activation curves,[1]; wild-type DegS,~10 fold
same,Hill Constant (peptide activation),"[1]; wild-type DegS, 200 μM RseA",1.7 ± 0.1
same,EC50,[2],6.4 ± 1.6 µM
same,Hill Constant (peptide activation),"[2]; K243D, 200 μM RseA",1.4 ± 0.2
same,activation relative to wild-type DegS,"[2]; K243D, single substrate concentration",only marginally better than wild-type DegS
same,EC50,[3],4.8 ± 1.2 µM
same,Hill Constant (peptide activation),"[3]; D320A, 200 μM RseA",1.4 ± 0.1
same,activation relative to wild-type DegS,"[3]; D320A, single substrate concentration",only marginally better than wild-type DegS
same,EC50,[4],3.2 ± 0.4 µM
same,Hill Constant (peptide activation),"[4]; M319A, 200 μM RseA",1.1 ± 0.1
same,Maximum Activity (RseA cleavage),"[4]; M319A, 200 μM RseA, 23 °C, pH 8.3, average of two or more determinations",120 ± 20 M⁻¹ s⁻¹
same,decrease of half-maximal activation concentration relative to wild-type DegS,"[4]; M319A, lower than wild-type",10 fold
same,decrease of peptide-activated activity relative to wild-type DegS,"[4]; M319A, saturating YYF, lower than wild-type value",20 fold
same,EC50,[5],0.7 ± 0.2 µM
same,Hill Constant (peptide activation),"[5]; K243D/M319A, 200 μM RseA",1.2 ± 0.1
same,Maximum Activity (RseA cleavage),"[5]; K243D/M319A, 200 μM RseA, 23 °C, pH 8.3, average of two or more determinations",2700 ± 400 M⁻¹ s⁻¹
same,Hill Constant (RseA substrate),[6],1.4 ± 0.2
same,Vmax (RseA cleavage),"[6]; 23 °C, pH 8.3",2.6 ± 0.2 s^−1enz^−1
same,Vmax (RseA cleavage),"[7]; K243D 0.3 μM trimer, saturating peptide (DNRDGNVYYF 30 μM), 23 °C, pH 8.3",2.3 ± 0.1 s^−1enz^−1
same,Vmax relative to wild-type DegS,"[7]; K243D, saturating YYF",roughly within error for wild-type and the mutants
same,Hill Constant (RseA substrate),"[7]; K243D, saturating peptide",1.3 ± 0.1
same,Vmax (RseA cleavage),"[8]; D320A 0.3 μM trimer, saturating peptide (DNRDGNVYYF 30 μM), 23 °C, pH 8.3",3.1 ± 0.3 s^−1enz^−1
same,Vmax relative to wild-type DegS,"[8]; D320A, saturating YYF",roughly within error for wild-type and the mutants
same,Hill Constant (RseA substrate),"[8]; D320A, saturating peptide",1.2 ± 0.1
same,Hill Constant (RseA substrate),[9],1.2 ± 0.1
same,Vmax (RseA cleavage),"[9]; 23 °C, pH 8.3",2.1 ± 0.2 s^−1enz^−1
same,rate of rhodamine-FP modification in presence of peptide (order),[10],fastest
same,"L0, equilibrium constant T/R of unliganded enzyme","[11]; MWC global fit, enzyme parameter, peptide-independent",15000
same,KTP/KRP,"[11]; MWC global fit, peptide preference for relaxed state",12.3
same,"kr, rate constant for cleavage of RseA by substrate-bound R-state subunits","[11]; MWC global fit, same value for all enzymes and peptides",3.3 s⁻¹
same,DegS molecules in active conformation,"[11]; saturating peptide and saturating RseA substrate, MWC model",83%
same,reduction of (KTP/KRP)^3 relative to wild-type,"[12]; K243D (range given for K243D and D320A together), MWC model",30–70 fold
same,"KRS, dissociation constant of RseA substrate for R-state subunit",[12]; [16],150 µM
same,"KTS, dissociation constant of RseA substrate for T-state subunit",[12]; [16],505 µM
same,"L0, equilibrium constant T/R of unliganded enzyme","[12]; K243D, MWC global fit, enzyme parameter, peptide-independent",180
same,KTP/KRP,"[12]; K243D, MWC global fit, peptide preference for relaxed state",3.0
same,"kr, rate constant for cleavage of RseA by substrate-bound R-state subunits","[12]; K243D, MWC global fit, same value for all enzymes and peptides",3.3 s⁻¹
same,enzymes in active conformation,"[12]; K243D, saturating peptide and RseA, MWC model",about 85%
same,reduction of (KTP/KRP)^3 relative to wild-type,"[13]; D320A (range given for K243D and D320A together), MWC model",30–70 fold
same,"KRS, dissociation constant of RseA substrate for R-state subunit",[13]; [17],150 µM
same,"KTS, dissociation constant of RseA substrate for T-state subunit",[13]; [17],505 µM
same,"L0, equilibrium constant T/R of unliganded enzyme","[13]; D320A, MWC global fit, enzyme parameter, peptide-independent",350
same,KTP/KRP,"[13]; D320A, MWC global fit, peptide preference for relaxed state",4.1
same,"kr, rate constant for cleavage of RseA by substrate-bound R-state subunits","[13]; D320A, MWC global fit, same value for all enzymes and peptides",3.3 s⁻¹
same,enzymes in active conformation,"[13]; D320A, saturating peptide and RseA, MWC model",about 85%
same,"KRS, dissociation constant of RseA substrate for R-state subunit",[14]; [18],150 µM
same,"KTS, dissociation constant of RseA substrate for T-state subunit",[14]; [18],505 µM
same,"L0, equilibrium constant T/R of unliganded enzyme","[14]; M319A, MWC global fit, enzyme parameter, peptide-independent",5500
same,KTP/KRP,"[14]; M319A, MWC global fit, peptide preference for relaxed state",2.7
same,"kr, rate constant for cleavage of RseA by substrate-bound R-state subunits","[14]; M319A, MWC global fit, same value for all enzymes and peptides",3.3 s⁻¹
same,reduction of (KTP/KRP)^3 relative to wild-type,"[14]; M319A, MWC model",~100 fold
same,enzymes in active conformation,"[14]; M319A, saturating peptide and substrate, MWC model",about 10%
same,tighter binding to tense M319A than to tense wild-type DegS,[14]; MWC modeling,about 20 fold
same,"KRS, dissociation constant of RseA substrate for R-state subunit","[15]; RseA, not peptide, binding",150 µM
same,"KTS, dissociation constant of RseA substrate for T-state subunit","[15]; RseA, not peptide, binding",505 µM
same,"L0, equilibrium constant T/R of unliganded enzyme","[15]; enzyme parameter, peptide-independent",90
same,KTP/KRP,[15]; peptide preference for relaxed state,2.1
same,"kr, rate constant for cleavage of RseA by substrate-bound R-state subunits",[15]; same value for all enzymes and peptides,3.3 s⁻¹

# From paper PMC2742306 (Molecular cell, 2009)
